Test results as given in publication PMC8864858, “Synthesis, in vitro biological evaluation and molecular modelling of new 2-chloro-3-hydrazinopyrazine derivatives as potent acetylcholinesterase inhibitors on PC12 cells” (BMC Chemistry, 2022).
Entries after “also recorded” stand apart in the source; their conditions may differ.

What was measured:
[1] = Ferric reducing/antioxidant power (FRAP) assay; assay type: physicochemical; conditions: for Antioxidant effect in FRAP (in words): Fig. 3C
Method: (§1) The radical scavenging activity of prepared compounds was assessed through using ABTS decolorization assay and method reported by Re et al. with few modifications. In this regard, ABTS solution was diluted with 80% ethanol to the absorbance of 0.70 ± 0.05 at 734 nm. After adding 100 µL of the obtained compounds in ethanol (1–30 µM) or ascorbic acid, absorbance was measured at exactly 20 min in the same wavelength. DPPH assay was based on the method provided by Ghafouri et al. with some modifications. Additionally, the quenching of free radicals by novel synthesized compounds was evaluated spectrophotometrically (UV–Vis Pharmacia Biotech Ultrospec 3000) at 517 nm against the absorbance of DPPH radical. Further, ferric reducing/antioxidant power (FRAP) assay was performed according to the previous study with some modifications, the principle of which was based on reducing a ferric 2,4,6-tris(2-pyridyl)-1,3,5-triazine (Fe^3+-TPTZ) to ferrous in the presence of prepared compounds. Finally, a standard curve was drawn by considering the different concentrations (10–1000 µM) of ferrous sulfate.

PC12 cells [2] = assay: Cell viability of PC12 cells treated with CHP4 (MTT); assay type: cell-based; conditions: concentrations of 0–100 μM; 24 and 48 h
Method: Rattus norvegicus pheochromocytoma PC12 cells (Pastor Institute, Iran) were cultured in the Dulbecco's Modified Eagle's Medium (DMEM) containing 10% fetal bovine serum (FBS) and 1% penicillin/streptomycin (Gibco) at 37 °C with 5% CO2. In order to examine the role of CHP4, PC12 cells were treated with the different concentrations (10–100 µM) of CHP4 for 24 and 48 h. […] Furthermore, […] 10 µL of 0.5 mg/mL MTT stock solution were added to each well containing about 1 mL of medium and the mixture was incubated for 4 h. Then, the plates were agitated on a plate shaker for 30 min and optical density was read at 570 nm by using an ELISA reader (Biotech).

[3] = DPPH radical scavenging assay; assay type: physicochemical; conditions: for Scavenging activity on DPPH radical (in words): Fig. 3B
Method: as §1

HSP70 = assay: Western blot analysis of HSP70 in PC12 cells; assay type: cell-based, Rattus norvegicus; conditions: PC12 cells in presence of Ab1-42; CHP4 30 μM (b1)
Method: (§2) To this end, the cells were seeded in the 6-well plate and treated with 20 and 30 µM CHP4 for 24 h. Additionally, they were washed with cold PBS, followed by lysing with lysis buffer (20 mM Tris (pH 7.5), 150 mM NaCl, 1 mM EDTA, 1% NP-40, 0.5% sodium deoxycholate, 0.1% SDS, 50 mM Tris, protease and phosphatase inhibitor cocktails) for 30 min on ice. After centrifuging lysates at 4 °C in 12,000g for 10 min, the supernatants were transferred to new tubes. Protein concentration was detected through using the Bradford assay. Further, the denatured proteins was resolved on SDS-PAGE, transferred onto PVDF membranes (Millipore, Billerica, MA, USA), and blocked with 5% nonfat dry milk in the PBS containing 0.1% Tween-20 (PBST). Then, the membranes were incubated with the rabbit primary antibodies against Tau-p, HSP70, and β-actin (as a control group) overnight at 4 °C, and exposed with the horseradish peroxidase (HRP)-conjugated second antibody for 2 h at room temperature. Finally, the density of relative protein bands was determined through densitometric scanning the blots by using Image-J program.

PC12 cells [4] = assay: Ab1-42-induced cytotoxicity in PC12 cells, neuroprotection (MTT); assay type: cell-based; conditions: 100 µM Ab1-42, 24 h
Method: Rattus norvegicus pheochromocytoma PC12 cells (Pastor Institute, Iran) were cultured in the Dulbecco's Modified Eagle's Medium (DMEM) containing 10% fetal bovine serum (FBS) and 1% penicillin/streptomycin (Gibco) at 37 °C with 5% CO2. […] Furthermore, 50 µL of DMSO and 10 µL of 0.5 mg/mL MTT stock solution were added to each well containing about 1 mL of medium and the mixture was incubated for 4 h. Then, the plates were agitated on a plate shaker for 30 min and optical density was read at 570 nm by using an ELISA reader (Biotech).

[5] = molecular target: T1, AChE from Electrophorus electricus (Electrophorus electricus, UniProt O42275); assay: biochemical; conditions: Ellman method, compounds 0.1–10 µM, triplicate; read-out: IC50 against AChE activity
T1 construct: purchased Sigma
T1 sequence (O42275 24-633): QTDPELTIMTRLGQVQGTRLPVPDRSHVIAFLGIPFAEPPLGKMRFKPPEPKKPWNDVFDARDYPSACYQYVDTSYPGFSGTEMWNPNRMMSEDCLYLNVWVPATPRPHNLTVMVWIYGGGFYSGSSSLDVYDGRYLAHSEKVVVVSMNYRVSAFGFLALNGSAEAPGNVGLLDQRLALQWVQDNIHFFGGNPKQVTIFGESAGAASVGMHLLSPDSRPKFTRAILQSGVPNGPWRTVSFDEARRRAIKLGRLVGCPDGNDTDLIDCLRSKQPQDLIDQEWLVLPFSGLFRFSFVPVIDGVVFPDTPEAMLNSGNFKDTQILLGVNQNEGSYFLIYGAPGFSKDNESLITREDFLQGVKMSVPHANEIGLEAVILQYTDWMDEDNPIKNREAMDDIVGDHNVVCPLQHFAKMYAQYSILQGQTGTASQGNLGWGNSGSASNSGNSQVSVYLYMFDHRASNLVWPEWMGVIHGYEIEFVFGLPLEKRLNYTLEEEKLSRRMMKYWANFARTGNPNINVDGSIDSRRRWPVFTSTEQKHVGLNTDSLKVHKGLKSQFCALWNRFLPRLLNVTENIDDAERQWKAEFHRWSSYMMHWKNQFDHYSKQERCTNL
Method: The AChE inhibitory activity of all synthesized novel derivatives and their controls was evaluated through using the Ellman method. […] Each concentration was assayed in triplicate. […] Finally, absorbance was recorded by using a Pharmacia Biotech Ultrospec 3000 UV–Vis spectrophotometer at 410 nm.

Tau-p = assay: Western blot analysis of Tau-p in PC12 cells; assay type: cell-based, Rattus norvegicus; conditions: PC12 cells in presence of Ab1-42; CHP4 at 20 and 30 µM, 24 h
Method: as §2

[6] = ABTS radical decolorization assay; assay type: physicochemical; conditions: final concentration 1–30 μM, absorbance at 734 nm
Method: as §1

| SMILES | Antioxidant effect in FRAP (in words) [1] | Scavenging activity on DPPH radical (in words) [3] | IC50 [5] [µM] | other results |
| --- | --- | --- | --- | --- |
| Oc1ccccc1/C=N/Nc1nccnc1Cl [CHP4, (E)-2-((2-(3-chloropyrazin-2-yl)hydrazineylidene)methyl)phenol] | highest | highest scavenging activity | 3.76 | Ability for Fe3+ reduction (FRAP) ([1]; printed as 3.016 per 1 mM, concentration of Fe2+): 3.016; Toxicity in PC12 cells (PC12 cells [2]): non-toxic; HSP70 expression (western blot) (HSP70): significantly increased; also recorded: increased HSP70 expression; Effect on Ab1-42-induced cell death (PC12 cells [4]): significantly reduced the Ab1-42-induced cell death in a dose-dependent manner; Tau-p expression (western blot) (Tau-p): clearly decreased |
| Cc1ccc2occ(/C=N/Nc3nccnc3Cl)c(=O)c2c1 [CHP2, (E)-3-((2-(3-chloropyrazin-2-yl)hydrazineylidene)methyl)-6-methyl-4H-chromen-4-one] | – | highest scavenging activity | – | IC50 ([3]; 517 nm): 26 µM |
| Oc1cccc(/C=N/Nc2nccnc2Cl)c1 [CHP3, (E)-3-((2-(3-chloropyrazin-2-yl)hydrazineylidene)methyl)phenol] | – | highest scavenging activity | – | – |
| Clc1ccc(/C=N/Nc2nccnc2Cl)cc1 [CHP5, (E)-2-chloro-3-(2-(4-chlorobenzylidene)hydrazineyl)pyrazine] | least | low | 4.2 | – |
| COc1ccc(/C=N/Nc2nccnc2Cl)cc1 [CHP1, (E)-2-chloro-3-(2-(4-methoxybenzylidene) hydrazinyl) pyrazine] | – | moderate | – | ABTS radical scavenging activity (inhibition) [6]: 48% |
